For orientation: IC50 means the point on the concentration scale where inhibition reaches its midpoint. Read a high IC50 as lower potency.

In patent US20240217978A1 (CHONG KUN DANG PHARMACEUTICAL CORP., priority 2021, published 2024) one finds IC50 data, which are given here for 27 compounds.

The target of this test is human adenosine A2a receptor (Homo sapiens (Human), UniProt P29274). The test is described as follows: A2a receptor binding affinity, [3H]-NECA radioligand binding test. Conditions: [3H]-NECA 37 nM; membrane from HEK-293 cells transfected with human adenosine A2a receptor. As to the method:
The binding affinity of the compounds according to Examples of the present invention to the human adenosine A2a receptor was evaluated by entrusting SB drug discovery in the UK.
A radioligand binding test was conducted by using [3H]-NECA (5′-N-[adenine-2,8-3H]-ethylcarboxamidoadenosine) and an adenosine A2a membrane. As the adenosine A2a membrane, a cell membrane prepared from HEK-293 cells transfected with human adenosine A2a receptor was used. The membrane used for the test was prepared by incubating with a radioligand until equilibrium was reached. In order to separate the radioligand-bound membrane, the unbound radioligand was separated by using Packard filtermate Harverster and glass filter plates.
10 μL of test compound dissolved in binding buffer (50 mM Tris, 10 mM MgCl2, 1 mM EDTA pH 7.4) and 20 μL of [3H]-NECA (final concentration of 37 nM) or reference inhibitor was mixed with 20 μL of A2a membrane in an unbound 96-well plate and incubated at room temperature for one hour. Prior to filtration, a 96-well harvest filter plate was coated with 0.33% polyethylenimine for 30 minutes and then washed with assay buffer. The binding reaction was transferred to the filter plate and washed three times with wash buffer. The dish was then dried, scintillant was added, and radioactivity was counted in a scintillation counter (Topcount NXT, Packard).
The binding affinity IC50 (μM) for the human adenosine A2a receptor obtained according to the above experimental method is shown in the table below.

The structures appear in SMILES notation.

human adenosine A2a receptor, sequence (P29274 whole entry): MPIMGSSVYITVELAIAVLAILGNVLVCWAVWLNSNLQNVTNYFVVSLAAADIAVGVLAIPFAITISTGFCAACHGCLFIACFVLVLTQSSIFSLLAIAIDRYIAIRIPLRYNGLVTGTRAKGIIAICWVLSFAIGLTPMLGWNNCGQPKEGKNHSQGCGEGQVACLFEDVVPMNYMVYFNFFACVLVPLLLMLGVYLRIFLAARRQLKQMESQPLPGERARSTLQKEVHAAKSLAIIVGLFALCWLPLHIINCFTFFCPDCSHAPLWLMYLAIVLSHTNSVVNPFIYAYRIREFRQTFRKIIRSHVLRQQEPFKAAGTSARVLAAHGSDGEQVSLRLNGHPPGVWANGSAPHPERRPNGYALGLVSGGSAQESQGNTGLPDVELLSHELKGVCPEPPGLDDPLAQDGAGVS

In turn, `CCC(F)(F)CN1CCN(C(=O)[C@@H]2CCN2c2nc(N)n3nc(-c4ccco4)nc3n2)CC1` [Example 254, (S)-(1-(7-amino-2-(furan-2-yl)-[1,2,4]triazolo[1,5-a][1,3,5]triazin-5-yl)azetidin-2-yl)(4-(2,2-difluorobutyl)piperazin-1-yl)methanone] showed an IC50 of 12 nM. Then `Nc1nc(N2CCC[C@H]2C(=O)N2CCC(C(=O)Nc3ccccn3)CC2)nc2nc(-c3ccco3)nn12` [Example 79, 1-((7-amino-2-(furan-2-yl)-[1,2,4]triazolo[1,5-a][1,3,5]triazin-5-yl)-L-prolyl)-N-(pyridin-2-yl)piperidin-4-carboxamide], with 11 nM. Then `Nc1nc(N[C@H](C(=O)N2CCN(CC(F)(F)F)CC2)C2CCCCC2)nc2nc(-c3nccs3)nn12` [Example 250, (S)-2-((7-amino-2-(thiazol-2-yl)-[1,2,4]triazolo[1,5-a][1,3,5]triazin-5-yl)amino)-2-cyclohexyl-1-(4-(2,2,2-trifluoroethyl)piperazin-1-yl)ethan-1-one], with 9 nM; and `CCCCN1CCN(C(=O)[C@@H]2CCN2c2nc(N)n3nc(-c4ccc(C)o4)nc3n2)CC1` [Example 222, (S)-(1-(7-amino-2-(5-methylfuran-2-yl)-[1,2,4]triazolo[1,5-a][1,3,5]triazin-5-yl)azetidin-2-yl)(4-butylpiperazin-1-yl)methanone], with 8 nM. Under `Nc1nc(N[C@@H](CO)C(=O)N2CCN(CC(F)(F)F)CC2)nc2nc(-c3ccco3)nn12` [Example 231, (S)-2-((7-amino-2-(furan-2-yl)-[1,2,4]triazolo[1,5-a][1,3,5]triazin-5-yl)amino)-3-hydroxy-1-(4-(2,2,2-trifluoroethyl)piperazin-1-yl)propan-1-one] stands 5 nM; under `Nc1nc(N2CCC[C@H]2C(=O)N2CCC(C(=O)Nc3cccc(C(F)F)c3)CC2)nc2nc(-c3ccco3)nn12` [Example 132, 1-((7-amino-2-(furan-2-yl)-[1,2,4]triazolo[1,5-a][1,3,5]triazin-5-yl)-L-prolyl)-N-(3-(difluoromethyl)phenyl)piperidin-4-carboxamide], 11 nM. The compound `C[C@H](Nc1nc(N)n2nc(-c3ccco3)nc2n1)C(=O)N1CCN(c2ccc(F)cc2F)CC1` [Example 9, (S)-2-((7-amino-2-(furan-2-yl)-[1,2,4]triazolo[1,5-a][1,3,5]triazin-5-yl)amino)-1-(4-(2,4-difluorophenyl)piperazin-1-yl)propan-1-one] returned a half-inhibitory concentration (IC50) of 2.42 nM. Then `Nc1nc(N2CCC[C@H]2C(=O)N2CCN(C(=O)CC(F)(F)F)CC2)nc2nc(-c3ccco3)nn12` [Example 73, 1-(4-((7-amino-2-(furan-2-yl)-[1,2,4]triazolo[1,5-a][1,3,5]triazin-5-yl)-L-prolyl)piperazin-1-yl)-3,3,3-trifluoropropan-1-one], with 11 nM; and `Nc1nc(N[C@@H](Cc2ccccc2)C(=O)N2CCCN(Cc3ccccc3)CC2)nc2nc(-c3ccco3)nn12` [Example 20, (S)-2-((7-amino-2-(furan-2-yl)-[1,2,4]triazolo[1,5-a][1,3,5]triazin-5-yl)amino)-1-(4-benzyl-1,4-diazepan-1-yl)-3-phenylpropan-1-one], with 20 nM. Then `CC(F)(F)CN1CCC(C2CCN(C(=O)[C@@H]3CCCN3c3nc(N)n4nc(-c5ccco5)nc4n3)CC2)CC1` [Example 288, (S)-(1-(7-amino-2-(furan-2-yl)-[1,2,4]triazolo[1,5-a][1,3,5]triazin-5-yl)pyrrolidin-2-yl)(1′-(2,2-difluoropropyl)-[4,4′-bipiperidin]-1-yl)methanone], with 3 nM; and `Nc1nc(N2CCC[C@H]2C(=O)N2CCN(C(=O)CO)CC2)nc2nc(-c3ccco3)nn12` [Example 237, 1-(4-((7-amino-2-(furan-2-yl)-[1,2,4]triazolo[1,5-a][1,3,5]triazin-5-yl)-L-prolyl)piperazin-1-yl)-2-hydroxyethan-1-one], with 8 nM; and `CCc1cccc(NC(=O)C2CCN(C(=O)[C@@H]3CCCN3c3nc(N)n4nc(-c5ccco5)nc4n3)CC2)c1` [Example 131, 1-((7-amino-2-(furan-2-yl)-[1,2,4]triazolo[1,5-a][1,3,5]triazin-5-yl)-L-prolyl)-N-(3-ethylphenyl)piperidin-4-carboxamide], with 4 nM.

Consider `Nc1nc(N2CCC[C@H]2C(=O)N2CCN(CCC(F)(F)F)CC2)nc2nc(-c3ccco3)nn12` [Example 281, (S)-(1-(7-amino-2-(furan-2-yl)-[1,2,4]triazolo[1,5-a][1,3,5]triazin-5-yl)pyrrolidin-2-yl)(4-(3,3,3-trifluoropropyl)piperazin-1-yl) methanone], for which the concentration for half-maximal inhibition (IC50) was found to be 9 nM. Under `Nc1nc(N2CCC[C@H]2C(=O)N2CCN(CC(F)(F)C(F)(F)F)CC2)nc2sc(-c3ccco3)nc12` [Example 261, (S)-(1-(7-amino-2-(furan-2-yl)thiazolo[5,4-d]pyrimidin-5-yl)pyrrolidin-2-yl)(4-(2,2,3,3,3-pentafluoropropyl)piperazin-1-yl)methanone] stands 0.9 nM. Then `Nc1nc(N2CCC[C@H]2C(=O)N2CCN(CC(F)(F)C(F)F)CC2)nc2sc(-c3ccco3)nc12` [Example 260, (S)-(1-(7-amino-2-(furan-2-yl)thiazolo[5,4-d]pyrimidin-5-yl)pyrrolidin-2-yl)(4-(2,2,3,3-tetrafluoropropyl)piperazin-1-yl)methanone], with 0.9 nM. Turning to `CC(C)(O)CN1CCC(C2CCN(C(=O)[C@@H]3CCCN3c3nc(N)n4nc(-c5ccco5)nc4n3)CC2)CC1` [Example 244, (S)-(1-(7-amino-2-(furan-2-yl)-[1,2,4]triazolo[1,5-a][1,3,5]triazin-5-yl)pyrrolidin-2-yl)(1′-(2-hydroxy-2-methylpropyl)-[4,4′-bipiperidin]-1-yl)methanone], the IC50 was 4 nM.

In turn, `COCCN1CCN(C(=O)[C@@H]2CCN2c2nc(N)n3nc(-c4ccc(C)o4)nc3n2)CC1` [Example 221, (S)-(1-(7-amino-2-(5-methylfuran-2-yl)-[1,2,4]triazolo[1,5-a][1,3,5]triazin-5-yl)azetidin-2-yl)(4-(2-methoxyethyl)piperazin-1-yl) methanone] had a half-inhibitory concentration (IC50) of 10 nM.

With `Nc1nc(N2CCC[C@H]2C(=O)N2CCn3nc(C(F)(F)F)nc3C2)nc2nc(-c3ccco3)nn12` [Example 309], the IC50 was 21 nM.

In turn, `Nc1nc(N2CCC[C@H]2C(=O)N2CCN(C(=O)c3ccc(C(F)(F)F)cn3)CC2)nc2nc(-c3ccco3)nn12` [Example 83] displayed a concentration for half-maximal inhibition (IC50) of 16 nM. Then `Nc1nc(N2CCC[C@H]2C(=O)N2CCC(C3CCN(CC(F)(F)C(F)F)CC3)CC2)nc2nc(-c3ccco3)nn12` [Example 289, (S)-(1-(7-amino-2-(furan-2-yl)-[1,2,4]triazolo[1,5-a][1,3,5]triazin-5-yl)pyrrolidin-2-yl)(1′-(2,2,3,3-tetrafluoropropyl)-[4,4′-bipiperidin]-1-yl)methanone], with 9 nM; and `CC(C)(O)CC(=O)N1CCN(C(=O)[C@@H]2CCCN2c2cc3nc(-c4ccco4)nn3c(N)n2)CC1` [Example 292, 1-(4-((5-amino-2-(furan-2-yl)-[1,2,4]triazolo[1,5-c]pyrimidin-7-yl)-L-prolyl)piperazin-1-yl)-3-hydroxy-3-methylbutan-1-one], with 21 nM. Then `COc1ccccc1N1CCN(C(=O)[C@@H]2CCCN2c2nc(N)n3nc(-c4ccco4)nc3n2)CC1` [Example 122, (S)-(1-(7-amino-2-(furan-2-yl)-[1,2,4]triazolo[1,5-a][1,3,5]triazin-5-yl)pyrrolidin-2-yl)(4-(2-methoxyphenyl)piperazin-1-yl)methanone], with 19 nM; and `Nc1nc(N2CCCC[C@H]2C(=O)N2CCN(CC(F)(F)C(F)(F)F)CC2)nc2nc(-c3ccco3)nn12` [Example 280, (S)-(1-(7-amino-2-(furan-2-yl)-[1,2,4]triazolo[1,5-a][1,3,5]triazin-5-yl)piperidin-2-yl)(4-(2,2,3,3,3-pentafluoropropyl)piperazin-1-yl)methanone], with 9 nM; and `Nc1nc(N2CCC[C@H]2C(=O)N2CC(Cc3ccccc3)C2)nc2nc(-c3ccco3)nn12` [Example 113, (S)-(1-(7-amino-2-(furan-2-yl)-[1,2,4]triazolo[1,5-a][1,3,5]triazin-5-yl)pyrrolidin-2-yl)(3-benzylazetidin-1-yl)methanone], with 9 nM. Under `C[C@H](Nc1nc(N)n2nc(-c3ccco3)nc2n1)C(=O)N1CCN(Cc2ccc(F)cc2)CC1` [Example 23, (S)-2-((7-amino-2-(furan-2-yl)-[1,2,4]triazolo[1,5-a][1,3,5]triazin-5-yl)amino)-1-(4-(4-fluorobenzyl)piperazin-1-yl)propan-1-one] stands 61 nM; under `Nc1nc(N2CCC[C@H]2C(=O)N2CCC(C3CCN(CC(F)F)CC3)CC2)nc2nc(-c3ccco3)nn12` [Example 287, (S)-(1-(7-amino-2-(furan-2-yl)-[1,2,4]triazolo[1,5-a][1,3,5]triazin-5-yl)pyrrolidin-2-yl)(1′-(2,2-difluoroethyl)-[4,4′-bipiperidin]-1-yl)methanone], 3 nM.

`C[C@H](Nc1nc(N)n2nc(-c3ccco3)nc2n1)C(=O)N1CCN(Cc2ccccc2)CC1` [Example 21, (S)-2-((7-amino-2-(furan-2-yl)-[1,2,4]triazolo[1,5-a][1,3,5]triazin-5-yl)amino)-1-(4-benzylpiperazin-1-yl)propan-1-one]: the IC50 was found to be 30 nM.
